These molecules were tested against TBK1 (Homo sapiens (Human), UniProt Q9UHD2) (assay: TBK1 low ATP kinase assay (in vitro assay 1)). Settings: in vitro assay 1, read-out: TBK1 low ATP kinase assay IC50.
Chain of TBK1 (Q9UHD2 whole entry): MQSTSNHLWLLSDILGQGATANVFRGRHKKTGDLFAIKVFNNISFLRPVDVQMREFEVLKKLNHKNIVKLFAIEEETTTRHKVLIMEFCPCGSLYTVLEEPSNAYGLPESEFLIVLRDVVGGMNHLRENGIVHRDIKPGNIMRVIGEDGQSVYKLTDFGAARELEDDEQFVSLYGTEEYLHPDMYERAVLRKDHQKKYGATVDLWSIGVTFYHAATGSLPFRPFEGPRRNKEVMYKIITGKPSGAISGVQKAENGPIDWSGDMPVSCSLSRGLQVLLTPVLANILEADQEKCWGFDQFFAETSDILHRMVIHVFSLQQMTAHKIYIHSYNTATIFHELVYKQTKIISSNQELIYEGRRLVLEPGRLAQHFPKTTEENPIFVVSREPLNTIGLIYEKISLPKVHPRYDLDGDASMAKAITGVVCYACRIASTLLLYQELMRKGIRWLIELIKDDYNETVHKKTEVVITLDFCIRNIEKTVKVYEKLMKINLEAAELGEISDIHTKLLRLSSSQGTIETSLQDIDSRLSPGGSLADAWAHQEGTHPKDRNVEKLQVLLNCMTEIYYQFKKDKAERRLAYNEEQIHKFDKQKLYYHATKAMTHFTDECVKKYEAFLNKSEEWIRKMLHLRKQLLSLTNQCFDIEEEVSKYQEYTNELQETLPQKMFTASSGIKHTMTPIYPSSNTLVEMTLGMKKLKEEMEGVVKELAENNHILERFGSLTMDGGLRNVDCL
Assay type: biochemical
`Cc1cc(-c2ccc3nc(Nc4cc(CN5CCN(C(=O)C6CC6)CC5)ccn4)[nH]c3c2)cc(C#N)n1` [Example 136.03, 4-{2-[(4-{[4-(cyclopropylcarbonyl)piperazin-1-yl]methyl}pyridin-2-yl)amino]-1H-benzimidazol-6-yl}-6-methylpyridine-2-carbonitrile] gave an IC50 of 21 nM.
`Cc1noc(-c2ccc3nc(Nc4cc(CN5CCN(c6ncncn6)CC5)ccn4)[nH]c3c2)n1` [Example 101.27, 6-(3-methyl-1,2,4-oxadiazol-5-yl)-N-(4-{[4-(1,3,5-triazin-2-yl)piperazin-1-yl]methyl}pyridin-2-yl)-1H-benzimidazol-2-amine] was tested, and the IC50 was 350 nM.
In the case of `CCC(C)c1noc(-c2ccc3nc(Nc4cc(CN5CCN(C(=O)C6CC6)CC5)ccn4)[nH]c3c2)n1` (stereo not drawn) [Example 20.01, (4-{[2-({6-[3-(butan-2-yl)-1,2,4-oxadiazol-5-yl]-1H-benzimidazol-2-yl}amino)pyridin-4-yl]methyl}piperazin-1-yl)(cyclopropyl)methanone], the IC50 is reported as 685 nM.
`COc1cnccc1-c1ccc2nc(Nc3cc(CN4CCN(C(=O)CC5CC5)CC4)ccn3)[nH]c2c1` [Example 04.05, 2-cyclopropyl-1-{4-[(2-{[6-(3-methoxypyridin-4-yl)-1H-benzimidazol-2-yl]amino}pyridin-4-yl)methyl]piperazin-1-yl}ethanone] gave an IC50 of 25.3 nM.
For `COc1cc(-c2ccc3nc(Nc4cc(C(C)N5CCN(C(=O)C6CC6)CC5)ccn4)[nH]c3c2)ncn1` (single isomer, unassigned) [Example 34.03.02.A, cyclopropyl{4-[(1R or 1S)-1-(2-{[6-(6-methoxypyrimidin-4-yl)-1H-benzimidazol-2-yl]amino}pyridin-4-yl)ethyl]piperazin-1-yl}methanone], the IC50 was 46.4 nM.
For `CC(c1ccnc(Nc2nc3ccc(-c4cnn(CC5CC5(F)F)c4)c(F)c3[nH]2)c1)N1CCN(C(=O)CC(F)(F)F)CC1` (single isomer, unassigned) [Example 86.02, 1-{4-[(1R or 1S)-1-(2-{[6-(1-{[(1RS)-2,2-difluorocyclopropyl]methyl}-1H-pyrazol-4-yl)-7-fluoro-1H-benzimidazol-2-yl]amino}pyridin-4-yl)ethyl]piperazin-1-yl}-3,3,3-trifluoropropan-1-one], the IC50 was 2.1 nM.
Molecule `Cc1cc(CN2CCN(C(=O)C3CC3)CC2)cc(Nc2nc3ccc(-c4ccnc(C)n4)cc3[nH]2)n1` [Example 24.02.01, cyclopropyl{4-[(2-methyl-6-{[6-(2-methylpyrimidin-4-yl)-1H-benzimidazol-2-yl]amino}pyridin-4-yl)methyl]piperazin-1-yl}methanone] has an IC50 of 45.8 nM.
In the case of `CC(c1ccnc(Nc2nc3ccc(-c4cnn(CC(F)F)c4)cc3[nH]2)c1)N1CCN(C(=O)CC(F)(F)F)CC1` (single isomer, unassigned) [Example 87.01, 1-(4-{(1R or 1S)-1-[2-({6-[1-(2,2-difluoroethyl)-1H-pyrazol-4-yl]-1H-benzimidazol-2-yl}amino)pyridin-4-yl]ethyl}piperazin-1-yl)-3,3,3-trifluoropropan-1-one], the IC50 is reported as 2.3 nM.
For `Cc1cc(-c2ccc3nc(Nc4cc(C(C)N5CCN(C(=O)C6CC6)CC5)ccn4)[nH]c3c2)ncn1` (racemic) [Example 30.02.03, (rac)-cyclopropyl{4-[1-(2-{[6-(6-methylpyrimidin-4-yl)-1H-benzimidazol-2-yl]amino}pyridin-4-yl)ethyl]piperazin-1-yl}methanone], the IC50 was 3.73 nM.
In the case of `CC(c1ccnc(Nc2nc3ccc(-c4cc(Cl)ncn4)cc3[nH]2)c1)N1CCN(C(=O)OC(C)(C)C)CC1` (single isomer, unassigned) [Example 85.01, tert-Butyl 4-[(1R or 1S)-1-(2-{[6-(6-chloropyrimidin-4-yl)-1H-benzimidazol-2-yl]amino}pyridin-4-yl)ethyl]piperazine-1-carboxylate], the IC50 is reported as 5.7 nM.
`Cc1cc(-c2ccc3nc(Nc4cc(CN5CCN(C(=O)OC(C)(C)C)CC5)ccn4)[nH]c3c2)ccn1` [Example 01.01, tert-butyl 4-[(2-{[6-(2-methylpyridin-4-yl)-1H-benzimidazol-2-yl]amino}pyridin-4-yl)methyl]piperazine-1-carboxylate] showed an IC50 of 150 nM.
With `COCc1cc(-c2ccc3nc(Nc4cc(C(C)N5CCN(C(=O)CC(F)(F)F)CC5)ccn4)[nH]c3c2Cl)ncn1` (single isomer, unassigned) [Example 99.01, 1-(4-{(1R or 1S)-1-[2-({7-chloro-6-[6-(methoxymethyl)pyrimidin-4-yl]-1H-benzimidazol-2-yl}amino)pyridin-4-yl]ethyl}piperazin-1-yl)-3,3,3-trifluoropropan-1-one] the IC50 was 33 nM.
`Cc1noc(-c2ccc3nc(Nc4cc(CN5CCN(C(=O)CC6CC6)CC5)ccn4)[nH]c3c2)n1` [Example 16.01.03, 2-cyclopropyl-1-{4-[(2-{[6-(3-methyl-1,2,4-oxadiazol-5-yl)-1H-benzimidazol-2-yl]amino}pyridin-4-yl)methyl]piperazin-1-yl}ethanone] showed an IC50 of 115 nM.
Work on `Cc1noc(-c2ccc3nc(Nc4cc(C(C)N5CCN(C(=O)C(C)(C)O)CC5)ccn4)[nH]c3c2)n1` (single isomer, unassigned) [Example 16.06.06, 2-hydroxy-2-methyl-1-{4-[(1R or 1S)-1-(2-{[6-(3-methyl-1,2,4-oxadiazol-5-yl)-1H-benzimidazol-2-yl]amino}pyridin-4-yl)ethyl]piperazin-1-yl}propan-1-one] yielded an IC50 of 73 nM.
With `Cn1cc(-c2ccc3nc(Nc4cc(CN5CCN(C(=O)CC6CC6)CC5)ccn4)[nH]c3c2)cn1` [Example 37.02, 2-cyclopropyl-1-{4-[(2-{[6-(1-methyl-1H-pyrazol-4-yl)-1H-benzimidazol-2-yl]amino}pyridin-4-yl)methyl]piperazin-1-yl}ethanone] the IC50 was 62.5 nM.
`Cc1noc(-c2ccc3nc(Nc4cc(CN5CCN(c6ccccc6)CC5)ccn4)[nH]c3c2)n1` [Example 101.04, 6-(3-methyl-1,2,4-oxadiazol-5-yl)-N-{4-[(4-phenylpiperazin-1-yl)methyl]pyridin-2-yl}-1H-benzimidazol-2-amine] was tested, and the IC50 was 3000 nM.
For `Clc1ccccc1N1CCN(Cc2ccnc(Nc3nc4ccc(-c5noc(C6CC6)n5)cc4[nH]3)c2)CC1` [Example 22.01, N-(4-{[4-(2-chlorophenyl)piperazin-1-yl]methyl}pyridin-2-yl)-6-(5-cyclopropyl-1,2,4-oxadiazol-3-yl)-1H-benzimidazol-2-amine], the IC50 was 481 nM.
`CC(c1ccnc(Nc2nc3ccc(-c4cnn(CC5CC5(C)C)c4)cc3[nH]2)c1)N1CCN(C(=O)C2CC2)CC1` (single isomer, unassigned) [Example 67.03, cyclopropyl{4-[(1R or 1S)-1-(2-{[6-(1-{[(1RS)-2,2-dimethylcyclopropyl]methyl}-1H-pyrazol-4-yl)-1H-benzimidazol-2-yl]amino}pyridin-4-yl)ethyl]piperazin-1-yl}methanone] gave an IC50 of 2 nM.
For `CC(C)Nc1ncnc(-c2ccc3nc(Nc4cc(CN5CCN(C(=O)CC(F)(F)F)CC5)ccn4)[nH]c3c2)c1F` [Example 193.02, 3,3,3-trifluoro-1-(4-{[2-({6-[5-fluoro-6-(propan-2-ylamino)pyrimidin-4-yl]-1H-benzimidazol-2-yl}amino)pyridin-4-yl]methyl}piperazin-1-yl)propan-1-one], the IC50 was 34.6 nM.
Molecule `Cc1noc(-c2ccc3nc(Nc4cc(CN5CCN(C(=O)OC(C)(C)C)CC5)ccn4)[nH]c3c2)n1` [Example 16.01.01, tert-butyl 4-[(2-{[6-(3-methyl-1,2,4-oxadiazol-5-yl)-1H-benzimidazol-2-yl]amino}pyridin-4-yl)methyl]piperazine-1-carboxylate] has an IC50 of 230 nM.
Work on `CC(C)(C)OC(=O)N1CCN(Cc2ccnc(Nc3nc4ccc(-c5cc(C6=CCOCC6)ncn5)cc4[nH]3)c2)CC1` [Example 198.01, tert-butyl 4-{[2-({6-[6-(3,6-dihydro-2H-pyran-4-yl)pyrimidin-4-yl]-1H-benzimidazol-2-yl}amino)pyridin-4-yl]methyl}piperazine-1-carboxylate] yielded an IC50 of 43.8 nM.
In the case of `CC(C)(C)OC(=O)N1CCN(Cc2ccnc(Nc3nc4ccc(-c5nc(C6CC6)no5)cc4[nH]3)c2)CC1` [Example 17.01, tert-butyl 4-[(2-{[6-(3-cyclopropyl-1,2,4-oxadiazol-5-yl)-1H-benzimidazol-2-yl]amino}pyridin-4-yl)methyl]piperazine-1-carboxylate], the IC50 is reported as 97.8 nM.
For `CC(O)c1cc(-c2ccc3nc(Nc4cc(CN5CCN(C(=O)CC(F)(F)F)CC5)ccn4)[nH]c3c2)ncn1` (racemic) [Example 97.02, (rac)-3,3,3-trifluoro-1-[4-({2-[(6-{6-[1-hydroxyethyl]pyrimidin-4-yl}-1H-benzimidazol-2-yl)amino]pyridin-4-yl}methyl)piperazin-1-yl]propan-1-one], the IC50 was 18 nM.
`CC(c1ccnc(Nc2nc3ccc(-c4cc(N5CCCC5)ncn4)cc3[nH]2)c1)N1CCN(C(=O)C2(C)CC2(F)F)CC1` (single isomer, unassigned) [Example 117.06, [(1RS)-2,2-difluoro-1-methylcyclopropyl](4-{(1R or S)-1-[2-({6-[6-(pyrrolidin-1-yl)pyrimidin-4-yl]-1H-benzimidazol-2-yl}amino)pyridin-4-yl]ethyl}piperazin-1-yl)methanone] gave an IC50 of 0.86 nM.
`Clc1ccccc1N1CCN(Cc2ccnc(Nc3nc4ccc(-c5nc(C6CC6)no5)cc4[nH]3)c2)CC1` [Example 17.07, N-(4-{[4-(2-chlorophenyl)piperazin-1-yl]methyl}pyridin-2-yl)-6-(3-cyclopropyl-1,2,4-oxadiazol-5-yl)-1H-benzimidazol-2-amine] gave an IC50 of 102 nM.
Molecule `CC(c1ccnc(Nc2nc3ccc(-c4cnn(CC5CC5)c4)c(Cl)c3[nH]2)c1)N1CCN(C(=O)CC(F)(F)F)CC1` (single isomer, unassigned) [Example 122.02, 1-(4-{(1R or 1S)-1-[2-({7-chloro-6-[1-(cyclopropylmethyl)-1H-pyrazol-4-yl]-1H-benzimidazol-2-yl}amino)pyridin-4-yl]ethyl}piperazin-1-yl)-3,3,3-trifluoropropan-1-one] has an IC50 of 1.2 nM.
With `COc1cc(-c2ccc3nc(Nc4cc(CN5CCN(C(=O)CC6CC6)CC5)ccn4)[nH]c3c2)ccn1` [Example 02.05, 2-cyclopropyl-1-{4-[(2-{[6-(2-methoxypyridin-4-yl)-1H-benzimidazol-2-yl]amino}pyridin-4-yl)methyl]piperazin-1-yl}ethanone] the IC50 was 49.8 nM.

Source: US10894784B2, “Heteroarylbenzimidazole compounds” (BAYER PHARMA AKTIENGESELLSCHAFT, priority 2015, dated 2021)
